Reference: patent US20230096528A1, “Pharmaceutical Composition for Treatment or Prevention of Multiple Inflammatory disorders” (priority 2019, published 2023)

Test system: diet-induced (DIO) mice
Experiment: Body weight study in diet-induced (DIO) mice (Example 9)
Format: in vivo, C57BL/6NTac mice
Settings: gavage BID (DA 92.4 mg/kg, CQL 50 mg/kg)
Experimental: This example provides results of a study of DA plus another compound (CQL) on body weight in diet-induced (DIO) mice. Adult C57BL/6NTac mice were fed with a high fat diet (60%). […] The study period was for 56 days+2-3 days testing period afterward. Body weight change measure 3× per week, food and water consumption on days 0, 12, 28, 42 and 56. Metabolic biomarkers were measured on days 28 and 56. Cytokine analysis on Days 28 and 56. Serum levels of GLP-1, GLP-2, and CCK at 1 h after dosing on Days 1 and 56, and at 2 h after dosing on Day 7 (dosing (>6 h fasting prior to dosing until after blood collection); and serum level of PPY on Day 56.

## Oc1c(I)cc(Cl)c2cccnc12 [CQL]
  Serum HbA1c level at Day 28: significantly reduced
  Serum HbA1c level at Day 56: considerably increased
Vs vehicle
  Daily water intake at Day 28: significantly decreased
